Assays:
[1] = biological target: T1, human H3 receptor (Homo sapiens, UniProt Q9Y5N1); assay: H3 receptor binding, cloned human H3 receptor stably expressed in SK-N-MC cells; conditions: average of results
T1 construct: expressed in transfected cells
Experimental: (§1) Binding of compounds to the cloned human and rat H3 receptors, stably expressed in SK-N-MC cells, was performed as described by Barbier, A. J. et al. (Br. J. Pharmacol. 2004, 143(5), 649-661). Data for compounds tested in these assays are presented in Table 1 (human) and Table 2 (rat), as an average of the results obtained.

[2] = biological target: T1, human H3 receptor; assay: Cyclic AMP accumulation, SK-N-MC subline with reporter construct and human H3 receptor; assay type: cell-based; conditions: cAMP accumulation, SK-N-MC reporter cells expressing human H3; average of results; read-out: Human pA2 (converted)
Text: (§2) Sublines of SK-N-MC cells were created that expressed a reporter construct and either the human or rat H3 receptor. The pA2 values were obtained as described by Barbier et al. (2004). Data for compounds tested in these assays are presented in Table 3, as an average of the results obtained (NT=not tested).

[3] = biological target: T2, rat H3 receptor (Rattus norvegicus, UniProt Q9QYN8); assay: Cyclic AMP accumulation, SK-N-MC subline with reporter construct and rat H3 receptor; assay type: cell-based; conditions: cAMP accumulation, SK-N-MC reporter cells expressing rat H3; average of results; read-out: Rat pA2 (converted)
T2 construct: expressed in transfected cells
Text: as §2

[4] = biological target: T2, rat H3 receptor; assay: H3 receptor binding, cloned rat H3 receptor stably expressed in SK-N-MC cells; conditions: average of results
Experimental: as §1

T1 sequence (Q9Y5N1 whole entry): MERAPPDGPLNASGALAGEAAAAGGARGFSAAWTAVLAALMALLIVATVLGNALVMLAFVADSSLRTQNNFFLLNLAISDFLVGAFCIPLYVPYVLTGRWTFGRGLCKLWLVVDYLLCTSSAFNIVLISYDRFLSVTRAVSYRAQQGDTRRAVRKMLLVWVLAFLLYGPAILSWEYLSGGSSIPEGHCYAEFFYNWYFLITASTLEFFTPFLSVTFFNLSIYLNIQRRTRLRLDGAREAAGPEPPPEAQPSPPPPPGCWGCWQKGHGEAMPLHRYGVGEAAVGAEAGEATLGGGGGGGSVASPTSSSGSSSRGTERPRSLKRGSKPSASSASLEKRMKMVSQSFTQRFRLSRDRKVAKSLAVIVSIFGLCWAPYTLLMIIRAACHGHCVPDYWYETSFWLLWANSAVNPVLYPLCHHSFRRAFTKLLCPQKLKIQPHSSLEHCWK
T2 sequence (Q9QYN8 whole entry): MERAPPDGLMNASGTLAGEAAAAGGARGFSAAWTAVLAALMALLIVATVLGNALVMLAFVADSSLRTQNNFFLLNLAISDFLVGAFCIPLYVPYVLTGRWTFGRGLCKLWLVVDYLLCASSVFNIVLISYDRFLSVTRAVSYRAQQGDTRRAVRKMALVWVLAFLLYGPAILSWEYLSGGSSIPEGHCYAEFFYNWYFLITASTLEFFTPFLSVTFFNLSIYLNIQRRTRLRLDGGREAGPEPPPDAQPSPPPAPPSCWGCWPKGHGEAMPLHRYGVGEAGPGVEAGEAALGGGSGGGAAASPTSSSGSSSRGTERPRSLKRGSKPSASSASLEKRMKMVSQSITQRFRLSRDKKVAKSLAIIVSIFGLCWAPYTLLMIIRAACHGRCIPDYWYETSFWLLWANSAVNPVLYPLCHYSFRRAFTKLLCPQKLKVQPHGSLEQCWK

Row | SMILES | Ki [1] [nM] | further results
1 | O=C(c1ccc(C(O)c2ccccc2)cc1)N1CCN(C2CCC2)CC1 (stereo not drawn) [Example 14, (4-cyclobutyl-piperazin-1-yl)-[4-(hydroxy-phenyl-methyl)-phenyl]-methanone] | 4 | –
2 | CC(C)(O)c1ccc(C(=O)N2CCN(C3CCC3)CC2)cc1 [Example 41, (4-Cyclobutyl-piperazin-1-yl)-[4-(1-hydroxy-1-methyl-ethyl)-phenyl]-methanone] | 32 | –
3 | CC(C)C(O)c1ccc(C(=O)N2CCN(C3CCC3)CC2)cc1 (stereo not drawn) [Example 16, (4-Cyclobutyl-piperazin-1-yl)-[4-(1-hydroxy-2-methyl-propyl)-phenyl]-methanone] | 15 | –
4 | O=C(c1ccc(C(=O)N2CCCN(C3CC3)CC2)cc1)C1CCCCC1 [Example 29, (4-Cyclohexanecarbonyl-phenyl)-(4-cyclopropyl-[1,4]diazepan-1-yl)-methanone] | 1 | Kb [2]: 0.912 nM; Kb [3]: 6.92 nM
5 | O=C(c1ccc(CO)cc1)N1CCN(C2CCC2)CC1 [Example 18, (4-Cyclobutyl-piperazin-1-yl)-(4-hydroxymethyl-phenyl)-methanone] | 43 | –
6 | CC(O)c1ccc(C(=O)N2CCCN(C(C)C)CC2)cc1 (stereo not drawn) [Example 12, [4-(1-Hydroxy-ethyl)-phenyl]-(4-isopropyl-[1,4]diazepan-1-yl)-methanone] | 17 | –
7 | CC(C)C(O)c1ccc(C(=O)N2CCCN(C3CCC3)CC2)cc1 (stereo not drawn) [Example 22, (4-Cyclobutyl-[1,4]diazepan-1-yl)-[4-(1-hydroxy-2-methyl-propyl)-phenyl]-methanone] | 1 | –
8 | O=C(c1ccc(C(O)c2ccccc2)cc1)N1CCCN(C2CCC2)CC1 (stereo not drawn) [Example 21, (4-Cyclobutyl-[1,4]diazepan-1-yl)-[4-(hydroxy-phenyl-methyl)-phenyl]-methanone] | 1 | –
9 | CC(C)N1CCCN(C(=O)c2ccc(C(=O)C3CCCCC3)cc2)CC1 [Example 9, (4-Cyclohexanecarbonyl-phenyl)-(4-isopropyl-[1,4]diazepan-1-yl)-methanone] | 3 | –
10 | CC(C)N1CCN(C(=O)c2ccc(CO)cc2)CC1 [Example 6, (4-Hydroxymethyl-phenyl)-(4-isopropyl-piperazin-1-yl)-methanone] | 164 | Kb [3]: 295 nM
11 | CC(O)c1ccc(C(=O)N2CCN(C(C)C)CC2)cc1 (stereo not drawn) [Example 4, [4-(1-Hydroxy-ethyl)-phenyl]-(4-isopropyl-piperazin-1-yl)-methanone] | 58 | –
12 | CC(C)(C)c1ccc(C(=O)N2CCN(C3CCC3)CC2)cc1 [Example 33, (4-tert-Butyl-phenyl)-(4-cyclobutyl-piperazin-1-yl)-methanone] | 5 | Ki [4]: 152 nM; Kb [2]: 3.63 nM; Kb [3]: 13.5 nM
13 | CCCCN1CCN(C(=O)c2ccc(CO)cc2)CC1 [Example 50, (4-Butyl-piperazin-1-yl)-(4-hydroxymethyl-phenyl)-methanone] | 55 | –
14 | CCC(O)c1ccc(C(=O)N2CCN(C3CCC3)CC2)cc1 (stereo not drawn) [Example 15, (4-Cyclobutyl-piperazin-1-yl)-[4-(1-hydroxy-propyl)-phenyl]-methanone] | 12 | –
15 | CCC(O)c1ccc(C(=O)N2CCCN(C3CC3)CC2)cc1 (stereo not drawn) [Example 31, (4-Cyclopropyl-[1,4]diazepan-1-yl)-[4-(1-hydroxy-propyl)-phenyl]-methanone] | 4 | Ki [4]: 205 nM
16 | O=C(c1ccc(C2CCCCC2)cc1)N1CCN(C2CCC2)CC1 [Example 36, (4-Cyclobutyl-piperazin-1-yl)-(4-cyclohexyl-phenyl)-methanone] | 9 | Ki [4]: 79 nM
17 | CCC(O)c1ccc(C(=O)N2CCN(C(C)C)CC2)cc1 (stereo not drawn) [Example 2, [4-(1-Hydroxy-propyl)-phenyl]-(4-isopropyl-piperazin-1-yl)-methanone] | 32 | –
18 | CC(C)C(O)c1ccc(C(=O)N2CCN(C3CC3)CC2)cc1 (stereo not drawn) [Example 26, (4-Cyclopropyl-piperazin-1-yl)-[4-(1-hydroxy-2-methyl-propyl)-phenyl]-methanone] | 84 | –
19 | CCC(O)c1ccc(C(=O)N2CCCN(C3CCC3)CC2)cc1 (stereo not drawn) [Example 19, (4-Cyclobutyl-[1,4]diazepan-1-yl)-[4-(1-hydroxy-propyl)-phenyl]-methanone] | 1 | Kb [2]: 0.182 nM; Kb [3]: 3.31 nM
20 | O=C(c1ccc(C(O)c2ccccc2)cc1)N1CCN(C2CC2)CC1 (stereo not drawn) [Example 25, (4-Cyclopropyl-piperazin-1-yl)-[4-(hydroxy-phenyl-methyl)-phenyl]-methanone] | 59 | –
21 | CC(C)C(O)c1ccc(C(=O)N2CCCN(C3CC3)CC2)cc1 (stereo not drawn) [Example 32, (4-Cyclopropyl-[1,4]diazepan-1-yl)-[4-(1-hydroxy-2-methyl-propyl)-phenyl]-methanone] | 3 | Kb [2]: 0.794 nM; Kb [3]: 12 nM
22 | CCCCCc1ccc(C(=O)N2CCN(C3CCC3)CC2)cc1 [Example 40, (4-Cyclobutyl-piperazin-1-yl)-(4-pentyl-phenyl)-methanone] | 17 | –

Row | SMILES | Ki [1] [nM] | further results
23 | O=C(c1ccc(C(O)C2CCCCC2)cc1)N1CCN(C2CC2)CC1 (stereo not drawn) [Example 24, [4-(Cyclohexyl-hydroxy-methyl)-phenyl]-(4-cyclopropyl-piperazin-1-yl)-methanone] | 19 | –
24 | O=C(c1ccc(CO)cc1)N1CCN(C2CC2)CC1 [Example 49, (4-Cyclopropyl-piperazin-1-yl)-(4-hydroxymethyl-phenyl)-methanone] | 586 | –
25 | CCC(C)N1CCN(C(=O)c2ccc(CO)cc2)CC1 (stereo not drawn) [Example 51, (4-sec-Butyl-piperazin-1-yl)-(4-hydroxymethyl-phenyl)-methanone] | 530 | –
26 | CC(C)N1CCN(C(=O)c2ccc(C(O)c3ccccc3)cc2)CC1 (stereo not drawn) [Example 3, [4-(Hydroxy-phenyl-methyl)-phenyl]-(4-isopropyl-piperazin-1-yl)-methanone] | 14 | –
27 | O=C(c1ccc(CO)cc1)N1CCCN(C2CC2)CC1 [Example 28, (4-Cyclopropyl-[1,4]diazepan-1-yl)-(4-hydroxymethyl-phenyl)-methanone] | 20 | –
28 | CCC(O)c1ccc(C(=O)N2CCCN(C(C)C)CC2)cc1 (stereo not drawn) [Example 10, [4-(1-Hydroxy-propyl)-phenyl]-(4-isopropyl-[1,4]diazepan-1-yl)-methanone] | 9 | Ki [4]: 509 nM
29 | CC(C)c1ccc(C(=O)N2CCN(C3CCC3)CC2)cc1 [Example 35, (4-Cyclobutyl-piperazin-1-yl)-(4-isopropyl-phenyl)-methanone] | 11 | –
30 | CC(C)N1CCCN(C(=O)c2ccc(CO)cc2)CC1 [Example 8, (4-Hydroxymethyl-phenyl)-(4-isopropyl-[1,4]diazepan-1-yl)-methanone] | 31 | –
31 | CC(C)C(O)c1ccc(C(=O)N2CCCN(C(C)C)CC2)cc1 (stereo not drawn) [Example 13, [4-(1-Hydroxy-2-methyl-propyl)-phenyl]-(4-isopropyl-[1,4]diazepan-1-yl)-methanone] | 6 | –
32 | O=C(c1ccc(C(O)C2CCCCC2)cc1)N1CCCN(C2CCC2)CC1 (stereo not drawn) [Example 20, (4-Cyclobutyl-[1,4]diazepan-1-yl)-[4-(cyclohexyl-hydroxy-methyl)-phenyl]-methanone] | 1 | –
33 | O=C(c1ccc(Cc2ccccc2)cc1)N1CCN(C2CCC2)CC1 [Example 37, (4-Benzyl-phenyl)-(4-cyclobutyl-piperazin-1-yl)-methanone] | 7 | –
34 | CCCCc1ccc(C(=O)N2CCN(C3CCC3)CC2)cc1 [Example 39, (4-Butyl-phenyl)-(4-cyclobutyl-piperazin-1-yl)-methanone] | 24 | –
35 | O=C(c1ccc(CO)cc1)N1CCCN(C2CCC2)CC1 [Example 23, (4-Cyclobutyl-[1,4]diazepan-1-yl)-(4-hydroxymethyl-phenyl)-methanone] | 2 | –
36 | CC(C)N1CCCN(C(=O)c2ccc(C(O)c3ccccc3)cc2)CC1 (stereo not drawn) [Example 11, [4-(Hydroxy-phenyl-methyl)-phenyl]-(4-isopropyl-[1,4]diazepan-1-yl)-methanone] | 2 | Ki [4]: 78 nM
37 | O=C(c1ccc(C(O)C2CCCCC2)cc1)N1CCN(C2CCC2)CC1 (stereo not drawn) [Example 17, (4-Cyclobutyl-piperazin-1-yl)-[4-(cyclohexyl-hydroxy-methyl)-phenyl]-methanone] | 4 | –
38 | CCC(O)c1ccc(C(=O)N2CCN(C3CC3)CC2)cc1 (stereo not drawn) [Example 48, (4-Cyclopropyl-piperazin-1-yl)-[4-(1-hydroxy-propyl)-phenyl]-methanone] | 221 | –
39 | CC(C)N1CCN(C(=O)c2ccc(C(O)C3CCCCC3)cc2)CC1 (stereo not drawn) [Example 1, [4-(Cyclohexyl-hydroxy-methyl)-phenyl]-(4-isopropyl-piperazin-1-yl)-methanone] | 7 | –
40 | O=C(c1ccc(C2(O)CCCCC2)cc1)N1CCN(C2CCC2)CC1 [Example 42, (4-Cyclobutyl-piperazin-1-yl)-[4-(1-hydroxy-cyclohexyl)-phenyl]-methanone] | 7 | –
41 | CC(C)C(O)c1ccc(C(=O)N2CCN(C(C)C)CC2)cc1 (stereo not drawn) [Example 5, [4-(1-Hydroxy-2-methyl-propyl)-phenyl]-(4-isopropyl-piperazin-1-yl)-methanone] | 6 | –
42 | CCCc1ccc(C(=O)N2CCN(C3CCC3)CC2)cc1 [Example 38, (4-Cyclobutyl-piperazin-1-yl)-(4-propyl-phenyl)-methanone] | 31 | –
43 | CCc1ccc(C(=O)N2CCN(C3CCC3)CC2)cc1 [Example 34, (4-Cyclobutyl-piperazin-1-yl)-(4-ethyl-phenyl)-methanone] | 28 | –

From patent publication US20080045507A1, “SUBSTITUTED BENZAMIDE MODULATORS OF THE HISTAMINE H3 RECEPTOR” (priority 2006, published 2008)
